Earlier results in patent US9561225B2, “Pharmaceutical formulation containing opioid agonist, opioid antagonist and gelling agent” (Purdue Pharma L.P., priority 2001, dated 2017).

Key:
[1] = after oral administration
[2] = tested on: morphine-like opioid agonist / heroin effects

Structure (SMILES) | duration of action [1] [h] | block of the effect of 25 mg of heroin ([2]; 1 mg intravenously) | effect on morphine-like opioid agonist effects ([2]; 0.4-0.8 mg intramuscularly or intravenously in man) | time of absorption (following oral administration) [h] | protein binding (in vivo)
C[C@H]1[C@H]2Cc3ccc(O)cc3[C@]1(C)CCN2CC1CC1 [cyclazocine] | ~24 | – | – | – | –
C=CCN1CC[C@]23c4c5ccc(O)c4O[C@H]2C(=O)CC[C@@]3(O)[C@H]1C5 [naloxone] | – | completely block | prevent or promptly reverse the effects of morphine-like opioid agonist | – | –
O=C1CC[C@@]2(O)[C@H]3Cc4ccc(O)c5c4[C@@]2(CCN3CC2CC2)[C@H]1O5 [naltrexone] | ~24 | – | – | ≤ 1 | approximately 21%
